Laboratory results: patent publication US20240398980A1, “NUCLEIC ACID-CONJUGATED POLYMERIC NANOPARTICLES AND METHODS OF USE” (The Brigham and Women's Hospital, Inc., priority 2021, published 2024)

How the values were obtained:
[1] = system: interferon regulatory factor (IRF)3 activity; test: IRF3 reporter activity in THP-1 Dual cells (QUANTI-Luc); format: cell-based, Human; conditions: for IRF and NF-kB activation compared with 2.3cGAMP: THP-1 reporter cell line, FIG. 30
Experimental: (§1) In vitro evaluation of CDN-NP activity: Human monocyte THP-1 Dual™ cells, THP-1 Dual™ KO-STING cells, RAW-Lucia™ ISG cells and RAW-Lucia™ ISG KO-STING cells were seeded in 96-well plates at 1×10^5 cells per well and incubated with the CDN-NP or free CDN at CDN concentrations ranging from 0-500 nM. At 24 h post treatment, interferon regulatory factor (IRF)3 activity was examined using the QUANTI-Luc™ reagent (InvivoGen) and NF-κB activity (only THP-1 Dual™ cells) was determined using the QUANTI-Blue™ reagent (InvivoGen) according to the manufacturer's instructions.

IRF response = test: IRF reporter response in RAW-Lucia ISG cells; format: cell-based, murine
Experimental: as §1

B16-F10 tumors = test: In vivo therapeutic efficacy, B16-F10 melanoma; set-up: species or system mice; conditions: B16-F10, 0.5 μg CDN i.v. x3, 4 d apart
Experimental: In vivo therapeutic efficacy: B16-F10, 4T1, and CT-26 cells were injected subcutaneously into the right flank of 6-8-week-old female mice (of the appropriate background for the cell type) in 100 μL HBSS at densities of 5×10^5, 1×10^6, and 1×10^6 cells/injection, respectively. Approximately 7 days post tumor inoculation (˜50 mm^3), mice were subjected to intravenous injection (100 μL) of free CDN or CDN-NP at a CDN dose of 0.5 μg. Mice were injected 3 times with treatments spaced 4 d apart. Groups receiving checkpoint blockade were injected intraperitoneally 24 h post systemic administration with 100 μg anti-PD-1 (clone RMP1.14, Bio X Cell). The tumor size was measured every other day via caliper measurements and the tumor volume calculated using the equation V=L×W×H×(π/6). Body weight was measured contemporaneously with tumor volume.

[2] = system: bone-marrow derived macrophages (BMDMs); test: Primary immune cell activation, flow cytometry; format: cell-based, C57BL/6 mice
Experimental: BMDC and BMDM isolation: The tibias and femurs of female wild type or goldenticket C57BL/6 mice (aged 8-12 weeks) were isolated and flushed to harvest bone marrow and to obtain a progenitor cell population. To generate BMDMs, 4-6×10^6 bone marrow cells were cultured in non-tissue culture treated T175 flasks with 25 mL of DMEM/F12 supplemented with 10% (v/v) FBS, 1% (v/v) P/S, 5% (v/v) GlutaMAX and recombinant murine macrophage-colony-stimulating factor (M-CSF, 20 ng/mL). The flasks were supplemented with additional medium on day 3 and day 6. To generate BMDCs, 2×10^6 bone marrow cells were added to non-tissue culture-treated petri dishes and cultured in 10 mL of RPMI-1640 supplemented with 10% (v/v) FBS, 1% (v/v) and recombinant murine granulocyte-macrophage colony-stimulating factor (GM-CSF, 20 ng/mL), 10 mL more of which was added on day 3. […]
Assessment of primary immune cell activation: BMDCs or BMDMs were seeded in 24-well plates at 2×10^5 cells per well and incubated with the CDN-NP or free CDN at equal CDN concentrations ranging from 1-100 nM. […] After 24 hours, the supernatant was removed and cells were then collected, washed, stained, fixed, and analyzed by flow cytometry. […] In addition, IFN-0, IL-6, and TNF-α were analyzed from the supernatant using a custom Legendplex™ panel (BioLegend) as per the manufacturer's instructions.

[3] = Pharmacokinetics in plasma after i.v. administration (LC-MS-MS and fluorescence); format: in vivo, C57BL/6 mice; conditions: 15 min after i.v.
Experimental: Pharmacokinetics of CDN-NPs: Non-tumor bearing 6-8-week-old female C57BL/6 mice were injected i.v. (100 μL per mouse) with fluorescent CDN-NPs and whole blood was collected 0.25, 0.5, 1, 3, 6, and 24 h post injection in Eppendorf tubes containing heparin though submandibular bleed (for early time points) or cardiac puncture (for late time points). Plasma was obtained by centrifugation for 20 mins at 10000×g. Fluorescent CDN-NPs were quantified using a 640 nm excitation and 680 emission wavelength by plate reader and CDN was also quantified by LC-MS/MS.

[4] = system: immune cell populations in the TME, tdLN, and spleen; test: Immunophenotyping by flow cytometry in B16-F10 tumor-bearing mice; format: in vivo, C57BL6/J mice
Experimental: Immunophenotyping analysis: Subcutaneous B16-F10 tumors were established in female C57BL6/J mice (6-8 weeks old), as previously described. The treatment groups were: PBS (untreated control), aPD-1 mAb, free CDN, free CDN with aPD-1 mAb, CDN-NPs, and CDN NPs with aPD-1 mAb. CDN formulations (free drug or NP, 0.5 μg CDN) were administered intravenously and aPD-1 mAb (100 μg) was administered intraperitoneally 24 h after CDN treatment. Dendritic cells and macrophages were assessed 48 h after treatment and T cells were analyzed 7 days post-treatment. Tumors were harvested, chopped, and digested in a solution of HBSS supplemented with collagenase I, II, and IV (100 ng/mL) and DNase I […] for 2 h at 37° C. TdLNs and spleens were harvested and mechanically dissociated. Single cell suspensions of tumors, tdLNs, and spleens were filtered through a 40 µm nylon cell strainer. Spleen and tumor cells were further treated with ACK Lysing Buffer (Gibco). Cells were washed, filtered through a 40 μm nylon cell strainer, and counted. For intracellular IFN-γ cytokine analysis, 1×10^6 cells were seeded in a 24-well plate in DMEM containing 10% (v/v) FBS and supplemented with PMA/ionomycin/Brefeldin A cocktail (BioLegend). After 4 h, the cells were washed and stained in 100 μL cell staining buffer (BioLegend). Intracellular staining was performed using an intracellular staining permeabilization wash buffer (BioLegend) The following anti-mouse antibodies were used for flow cytometry were purchased from BioLegend: CD45 APC-Cy7 (clone 30-F11), NK-1.1 BV710 (clone PK136), IFN-γ BV421 (clone XMG1.2), CD279 (PD-1) FITC (clone 29F.1A12), CD45 BV785 (clone 30-F11), CD11b BV421 (clone M1/70), Ly-6C APC-Cy7 (clone HK1.4), Ly-6G BV661 (clone 1A8), CD8a BV421 (clone 53-6.7), CD86 BV510 (clone GL-1), CD80 BV711 (clone 16-10A1), CD206 PE (clone C068C2), MHCII BV605 (clone M5/114.15.2), CD11c APC (clone N418), Siglec H PE (clone 551), and CD44 BV786 (clone IM7).
The following anti-mouse antibodies were purchased from BD Biosciences: CD3 BB700 (clone 17A2), CD4 BUV395 (clone GK1.5), CD8a BUV737 (clone 53-6.7), F4/80 BUV395 (clone T45-2342), CD103 BUV395 (clone M290), CD80 BUV737 (clone 16-10A1), ki67 BV510 (clone B56), CD69 BV605 (clone H1.2F3), and CD62L PE-CF594 (clone MEL-14). Live cells were gated using LIVE/DEAD™ (Thermo Fisher) aqua (cat. no. L34966), green (cat. no. L34970), or near-IR (cat. no. L34976). Stained cells were analyzed by flow cytometry using a BD LSRFortessa™ flow cytometer (BD Biosciences) and all data were analyzed using FlowJo software (FlowJo LLC).

[5] = tdLN, 7 d after single treatment

Row | SMILES | IRF and NF-kB activation compared with 2.3cGAMP [1] | EC50 (IRF response) [nM] | tumor growth and survival (B16-F10 tumors) | dose required to achieve the same degree of CD86 upregulation (15-fold) [2] [nM] | EC50 ([1]; THP-1 Dual cells, 24 h, read-out: EC50 IRF3 activation) [nM] | CDN (nM) in plasma [3] [nM] | CDN (nM) in plasma ([3]; listed as free CDNs) [nM] | CD86 expression on DCs in the spleen ([4]; 48 h after i.v., B16-F10) [%] | proportion of CD4+ T cells secreting IFN-γ in the TME ([4]; 7 d, ex vivo restimulation) [%] | proportion of CD8+ T cells secreting IFN-γ in the TME ([4]; 7 d, ex vivo restimulation) [%] | CD4+ central memory T cells (TCM) [4, 5] [%] | CD4+ effector memory T cells (TEM) [4, 5] [%]
1 | CC(C)[C@H](NC(=O)CCCCCN1C(=O)C=CC1=O)C(=O)N[C@@H](C)C(=O)Nc1ccc(COC(=O)N(C)Cc2ccccc2C(=O)Nc2nc3c(ncn3[C@@H]3O[C@@H]4CO[P@@](=O)(S)O[C@H]5C[C@H](Oc6ccncn6)C[C@@H]5CO[P@@](=O)(S)O[C@@H]3[C@@H]4O)c(=O)[nH]2)cc1 [CDN-linker, 4-{[(2S)-2-{[(2S)-2-{[6-(2,5-Dioxo-2,5-dihydro-1H-pyrrol-1 yl)hexanoyl]amino}-3-methylbutanoyl]amino}propanoyl]amino}benzyl [2-({9[(2R,5R,7R,8R,10R,12aR,14R,15aS,16R)-16-hydroxy-2,10-dioxido-14-(pyrimidin-4-yloxy)-2,10-disulfanyldecahydro-5,8-methanocyclopenta[1][1,3,6,9,11,2,10]Pentaoxadiphosphacyclotetradecin-7-yl]-6-oxo-6,9-dihydro-1H-purin-2-yl}carbamoyl)benzyl]methylcarbamate] | higher IRF and NF-kB activation than 2.3cGAMP |  |  |  |  |  |  |  |  |  |  | 
2 | Nc1nc2c(ncn2[C@@H]2O[C@@H]3CO[P@@](=O)(S)O[C@H]4C[C@H](Oc5ccncn5)C[C@@H]4CO[P@@](=O)(S)O[C@@H]2[C@@H]3O)c(=O)[nH]1 [free CDN, 2-Amino-9-[(2R,5R,7R,8R,10R,12aR,14R,15aS,16R)-16-hydroxy-2,10-dioxido 14-(pyrimidin-4-yloxy)-2,10-disulfanyldecahydro-5,8 methanocyclopenta[1][1,3,6,9,11,2,10]pentaoxadiphosphacyclotetradecin-7-yl]-1,9-dihydro-6H-purin-6-one] | higher IRF and NF-kB activation than 2.3cGAMP | > 1000 | only a modest suppression of tumor growth and no increase in survival | 100 | 1150 | <5 | < 5 | 8.4±1.3 | 4.0±1.0 | 15.7±3.5 | 6.2±0.4 | 5.3±0.8
